Experimental data from PubChem BioAssay (NCI).
Several values for one entry are separate records, joined by “and”; a condition that tells them apart may be missing. Identical values can stand only once.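 Tested at 5 concentrations; 48 h exposure; 96-well plates; endpoints linearly interpolated, else capped at highest concentration. Abbreviation: GI50, concentration required for 50% inhibition of growth. Definition used: TGI = concentration required for complete inhibition of growth.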

Key:
Test in all cases: growth of human tumour cells (NCI), 48 h
EKVX NSCLC = test system: EKVX NSCLC
NCI-H23 lung = test system: NCI-H23 lung
HOP-92 NSCLC = test system: HOP-92 NSCLC
SF-268 CNS = test system: SF-268 CNS
SF-539 CNS = test system: SF-539 CNS
M14 melanoma = test system: M14 melanoma
TK-10 renal = test system: TK-10 renal
SN12C renal = test system: SN12C renal
OVCAR-5 ovarian = test system: OVCAR-5 ovarian
DU-145 prostate = test system: DU-145 prostate

Row | Compound | TGI (EKVX NSCLC) | TGI (NCI-H23 lung) [µM] | TGI (HOP-92 NSCLC) | TGI (SF-268 CNS) | TGI (SF-539 CNS) | TGI (M14 melanoma) [µM] | TGI (TK-10 renal) | TGI (SN12C renal) [µM] | TGI (OVCAR-5 ovarian) [µM] | TGI (DU-145 prostate) [µM] | GI50 (EKVX NSCLC) [µM] | GI50 (NCI-H23 lung) [µM] | GI50 (OVCAR-5 ovarian) [µM] | GI50 (HOP-92 NSCLC) [µM] | GI50 (SF-268 CNS) [µM] | GI50 (SF-539 CNS) [µM] | GI50 (M14 melanoma) [µM] | GI50 (TK-10 renal) [µM] | GI50 (SN12C renal) [µM] | GI50 (DU-145 prostate) [µM]
1 | CSc1nc(SC)c2c(C(N)=S)[nH]nc2n1 | 56 µM | 66.3 | 50.4 µM | > 100 µM | 60 µM | > 100 | 63.5 µM | > 100 | – | – | – | – | – | – | – | – | – | – | – | –
2 | Cc1cc(Oc2cnc(=O)[nH]c2)cs1 | > 100 µM | > 100 | – | > 100 µM | > 100 µM | > 100 | > 100 µM | > 100 | > 100 | > 100 | – | – | – | – | – | – | – | – | – | –
3 | O=[P+](O)c1cc2ccccc2c2ccccc12 | > 100 µM | > 100 | – | > 100 µM | > 100 µM | > 100 | > 100 µM | > 100 | – | – | – | – | – | – | – | – | – | – | – | –
4 | CC(=O)OC(C)(C)/C=C/C(=O)[C@](C)(O)[C@H]1[C@H](O)C[C@@]2(C)[C@@H]3CC=C4[C@@H](C[C@H](O)C(=O)C4(C)C)[C@]3(CO)C(=O)C[C@]12C | 0.903 µM and 7.31 µM | 14.7 | 0.435 µM and 0.454 µM | 0.971 µM and 1.29 µM | 0.658 µM and 0.472 µM | 4.12 | 0.318 µM and 0.512 µM | 17.4 | 41 | – | 0.432 | 0.621 | 0.73 | 0.282 | 0.362 | 0.173 | 0.0857 | 0.251 | 0.368 | –
5 | CC1=C(C(=O)Nc2ccc([N+](=O)[O-])cc2)C(c2ccccc2O)C(C(=O)Nc2ccc([N+](=O)[O-])cc2)=C(C)N1 | 84.9 µM | 66.7 | 40.1 µM | 49 µM | 57.8 µM | 45.1 | > 100 µM | 55.5 | 55.8 | – | – | – | – | – | – | – | – | – | – | –
6 | Cc1ccc(-c2cc(=O)c3cc(C)c(C)c(C(=O)O)c3o2)cc1 | > 100 µM | > 100 | > 100 µM | > 100 µM | 75 µM | > 100 | > 100 µM | > 100 | > 100 | – | – | – | – | – | – | – | – | – | – | –
7 | O=CC(Br)C(Br)c1ccccc1 (stereo not given) | – | 24.8 | 2.89 µM | 16 µM | 4.36 µM | 4.88 | 3.56 µM | 11.4 | 13.2 | 5.74 | – | 3.85 | 4.5 | 1.52 | 4.2 | 1.87 | 2 | 1.74 | 3.06 | 2.26
8 | COc1ccc([I+]c2ccccc2)cc1 | – | > 100 | 81.9 µM | > 100 µM | > 100 µM | > 100 | > 100 µM | > 100 | > 100 | > 100 | – | 3.75 | > 100 | 6.55 | 6.3 | 6.77 | 9.09 | 17.4 | 40.3 | 23
9 | C[n+]1c2ccccc2c(Nc2ccc(NS(=O)(=O)CCCCN=C(N)N)cc2)c2ccc(N)cc21 | – | 90.4 | 52.9 µM | > 85.5 µM | > 100 µM | > 100 | 58.3 µM | > 100 | > 100 | 66.4 | – | 0.152 | 41.8 | 1.92 | 2.16 | 3.37 | 4.14 | 6.47 | 0.0443 | 0.163
10 | NC(=O)C(=Cc1ccc(CP(=O)(O)O)cc1)C(N)=O | > 100 µM | > 100 | > 100 µM | – | > 100 µM | > 100 | > 100 µM | > 100 | > 100 | – | – | – | – | – | – | – | – | – | – | –
11 | O=C1C2CC=CCC2C(=O)C12CCc1ccccc12 (stereo not given) | > 100 µM | > 100 | > 100 µM | > 100 µM | – | > 100 | > 100 µM | > 100 | – | – | – | – | – | – | – | – | – | – | – | –
12 | CN(C(=O)C12C3(C(=O)C(C)(C)C)C4C5(C#N)C3C1(C(=O)C(C)(C)C)C5C42C(=O)C(C)(C)C)C(C)(C)C (stereo not given) | > 50 µM | > 50 | > 50 µM | > 50 µM | > 50 µM | > 50 | > 50 µM | > 50 | > 50 | – | – | – | – | – | – | – | – | – | – | –
13 | COC1=C2C[C@H](O)C(C)C[C@@]2(OC)OC1=O (stereo not given in full) | – | > 100 | > 100 µM | > 100 µM | > 100 µM | > 100 | – | > 100 | – | – | – | – | – | – | – | – | – | – | – | –
14 | O=c1nc(NC(c2ccccc2)(c2ccccc2)c2ccccc2)ccn1CCO | > 100 µM | > 100 | > 100 µM | > 100 µM | > 100 µM | – | > 100 µM | > 100 | > 100 | – | – | – | – | – | – | – | – | – | – | –
15 | CCCCCCCC(=O)OCC1OC(n2cc(F)c(=O)[nH]c2=O)C(NC(=O)OCc2ccccc2)C(O)C1O (stereo not given) | > 100 µM | > 100 | 65.2 µM | > 100 µM | > 100 µM | > 100 | > 100 µM | > 100 | – | – | – | – | – | – | – | – | – | – | – | –
16 | O=C1[C@H]2ON(c3ccccc3)C(c3ccccc3F)[C@H]2C(=O)N1c1ccc(Cc2ccc(N3C(=O)[C@@H]4ON(c5ccccc5)C(c5ccccc5F)[C@@H]4C3=O)cc2)cc1 (stereo not given in full) | – | > 100 | > 100 µM | > 100 µM | > 100 µM | > 100 | – | > 100 | > 100 | – | – | – | – | – | – | – | – | – | – | –
17 | CCOc1ccccc1N1C(=O)C(=O)C(c2nc3ccccc3o2)/C(=N\N)C1=O (stereo not given) | > 100 µM | > 100 | > 100 µM | > 100 µM | > 100 µM | > 100 | > 100 µM | > 100 | > 100 | – | – | – | – | – | – | – | – | – | – | –
18 | COC(=O)c1ccc(NC(=O)c2cc(OC)c(OC)c(OC)c2)cc1 | > 100 µM | – | > 100 µM | > 100 µM | 5.5 µM | > 100 | > 100 µM | – | – | – | – | – | – | – | – | – | – | – | – | –
19 | O=C1C(Cl)=C(Nc2cccc(O)c2)C(=O)N1Cc1ccc(Cl)cc1 | 48.6 µM | 8.31 | – | 18.6 µM | 16.6 µM | 23.2 | 19.8 µM | 8.5 | 31.6 | 24.1 | 13.6 | 2.17 | 15.6 | – | 4.26 | 2.63 | 4.43 | 5.86 | 2.72 | 5.48
20 | CCOC(=O)[C@H]1CSC[C@@H](C(=O)OC)N1 | > 100 µM | > 100 | – | > 100 µM | – | > 100 | > 100 µM | > 100 | > 100 | – | – | – | – | – | – | – | – | – | – | –
21 | C/C(CC(=O)Nc1ccc(Cl)cc1)=N\NC(=O)C[n+]1ccccc1 | > 100 µM | > 100 | > 100 µM | > 100 µM | > 100 µM | > 100 | > 100 µM | – | > 100 | – | – | – | – | – | – | – | – | – | – | –
